Data as given in US9796742B2, “Kinase inhibitors” (Respivert Limited, priority 2012, dated 2017).
Where two headings read alike, the source gives them in different places.

How the values were obtained:
p38 MAPKα = p38 MAPKα (Homo sapiens (Human), UniProt Q16539); test: p38 MAPKα enzyme inhibition (FRET, Z-LYTE; Method 2); assay type: biochemical
In short: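 p38 MAPKα (2.5 μL of 200 ng/mL stock) preincubated 2 h at RT with compound, then kinase reaction 1 h at RT with readout via MAPKAP-K2 activation using a Z-LYTE FRET peptide. Protease development 1 h; coumarin/fluorescein emission ratio gives phosphorylation. % inhibition versus uninhibited control; IC50 from concentration-response curve.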

c-Src = c-Src (Homo sapiens (Human), UniProt P12931); test: c-Src enzyme inhibition (FRET, Z-LYTE); assay type: biochemical
Chain of c-Src (P12931 whole entry, looked up): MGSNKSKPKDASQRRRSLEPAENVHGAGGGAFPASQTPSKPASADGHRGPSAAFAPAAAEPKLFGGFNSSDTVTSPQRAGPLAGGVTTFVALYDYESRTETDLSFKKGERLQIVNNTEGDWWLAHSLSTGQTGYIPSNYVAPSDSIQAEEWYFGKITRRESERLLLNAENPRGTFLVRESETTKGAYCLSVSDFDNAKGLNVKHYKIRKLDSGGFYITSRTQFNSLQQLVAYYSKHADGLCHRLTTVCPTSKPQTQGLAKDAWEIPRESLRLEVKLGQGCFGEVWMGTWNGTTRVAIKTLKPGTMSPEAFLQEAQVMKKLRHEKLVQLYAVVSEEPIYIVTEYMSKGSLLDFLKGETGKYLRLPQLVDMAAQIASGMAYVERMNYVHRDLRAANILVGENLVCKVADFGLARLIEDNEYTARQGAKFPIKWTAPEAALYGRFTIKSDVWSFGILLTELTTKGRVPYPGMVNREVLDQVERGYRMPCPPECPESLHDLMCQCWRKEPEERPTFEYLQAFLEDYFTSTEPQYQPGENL
In short: (§1)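 Z-LYTE FRET peptide assay with enzyme preincubated with compound for 2 h at RT, then 1 h kinase reaction and 1 h protease development. ATP solutions were 800 μM for c-Src and 60 μM for Syk. Inhibition was taken from the coumarin/fluorescein emission ratio, and IC50 from concentration-response curves.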

Syk = Syk (Homo sapiens (Human), UniProt P43405); test: Syk enzyme inhibition (FRET, Z-LYTE); assay type: biochemical
In short: as §1

GSK3α = GSK3α (Homo sapiens (Human), UniProt P49840); test: GSK 3α enzyme inhibition (FRET, Z-LYTE; Method 2); assay type: biochemical
Chain of GSK3α (P49840 whole entry): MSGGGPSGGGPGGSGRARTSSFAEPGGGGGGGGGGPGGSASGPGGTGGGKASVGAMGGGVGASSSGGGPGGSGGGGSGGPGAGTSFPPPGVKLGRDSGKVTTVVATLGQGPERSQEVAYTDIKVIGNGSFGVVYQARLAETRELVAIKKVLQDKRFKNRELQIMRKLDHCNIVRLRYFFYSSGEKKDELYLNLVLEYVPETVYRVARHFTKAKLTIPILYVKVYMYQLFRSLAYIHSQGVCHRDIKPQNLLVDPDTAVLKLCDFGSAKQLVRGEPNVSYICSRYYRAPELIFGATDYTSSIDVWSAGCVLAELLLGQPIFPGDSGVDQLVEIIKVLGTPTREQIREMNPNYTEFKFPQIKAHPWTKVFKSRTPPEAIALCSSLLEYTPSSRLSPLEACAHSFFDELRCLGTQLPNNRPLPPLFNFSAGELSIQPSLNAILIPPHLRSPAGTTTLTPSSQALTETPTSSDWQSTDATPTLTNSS
In short: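 GSK3-α protein preincubated with compound for 105 min, then Z-LYTE FRET peptide and ATP added for 1 h before protease development for 1 h. Phosphorylation taken from coumarin/fluorescein emission ratio; percent inhibition against uninhibited control and IC50 calculated from concentration-response curves.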

d-U937 cells = test: LPS-induced TNFα/IL-8 release in d-U937 cells; assay type: cell-based; details: Homo sapiens, dU937, LPS-stimulated d-U937 cells
Description: U937 cells, a human monocytic cell line, are differentiated to macrophage-type cells by incubation with phorbol myristate acetate (PMA; 100 ng/mL) for 48 to 72 hr. Cells are pre-incubated with final concentrations of test compound for 2 hr and are then stimulated with 0.1 μg/mL of LPS (from E. Coli: O111:B4, Sigma) for 4 hr. The supernatant is collected for determination of TNFα and IL-8 concentrations by sandwich ELISA (Duo-set, R&D systems). The inhibition of TNFα production is calculated as a percentage of that achieved by 10 μg/mL of BIRB796 at each concentration of test compound by comparison against vehicle control. The relative 50% effective concentration (REC50) is determined from the resultant concentration-response curve. The inhibition of IL-8 production is calculated at each concentration of test compound by comparison with vehicle control. The 50% inhibitory concentration (IC50) is determined from the resultant concentration-response curve.

PBMCs [1] = test: LPS-induced TNFα/IL-8 release in PBMC cells; assay type: cell-based; details: Homo sapiens, LPS-stimulated PBMCs
In short: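 Cytokines (TNFα, IL-8) in supernatants were quantified by sandwich ELISA after a 24 h challenge with 1 ng/mL E. coli LPS at 37° C, 5% CO2. Healthy-donor PBMCs had been exposed to compound for 2 h beforehand. IC50 values were fitted from the concentration-response curves.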

PBMCs [2] = test: IL-2 and IFN gamma release in CD3/CD28 stimulated PBMC cells; assay type: cell-based; details: Homo sapiens
Description: PBMCs from healthy subjects are separated from whole blood using a density gradient (Lymphoprep, Axis-Shield Healthcare). Cells are added to a 96 well plate pre-coated with a mixture of CD3/[…] monoclonal antibodies (0.3 μg/mL eBioscience and 3 μg/mL BD Pharmingen respectively). Compound at the desired concentration is then added to the wells and the plate left for 3 days under normal tissue culture conditions. Supernatants are harvested and IL-2 and IFN gamma release determined by Sandwich ELISA (Duo-set, R&D System). The IC50 is determined from the dose response curve.

HT29 cells = test: IL-1β-induced IL-8 release in HT29 cells; assay type: cell-based; details: Homo sapiens, HT-29, IL-1β-stimulated HT29 cells, read-out: IC50 Values for Inhibition of Cytokine Release, HT29 cells IL-8
Description: HT29 cells, a human colon adenocarcinorna cell line, are plated in a 96 well plate (24 hrs) and pre-treated with compounds at the desired concentration for 2 hours before addition of 5 ng/mL of IL-1β (Abcam) for 24 hours. Supernatants are harvested for IL-8 quantification by Sandwich ELISA (Duo-set, R&D System). The IC50 is determined from the dose response curve.

[3] = system: TNBS-induced colitis in mice; test: TNBS-induced colitis in mice; assay type: in vivo
Description: Non-fasted, 10-12 week old, male BDF1 mice are dosed by oral gavage twice daily with either vehicle (5 mL/kg), reference item (Budesonide 2.5 mg/kg) or test compound (1 or 5 mg/kg) one day before (Day −1) stimulation of the inflammatory response by treatment with 2,4,6-trinitrobenzenesuiphonic acid (TNBS) (15 mg/mL in 50% ethanol/50% saline). On Day 0 of the study TNBS (200 μL) is administered intra-colonically via a plastic catheter followed by BID dosing of the vehicle, reference or test compound for 2 or 4 days. During the study animals are weighed every day and stool observations are made and recorded as a score, based on stool consistency. At the time of sacrifice on Day 2 (or Day 4) the large intestine is removed and the length and weight recorded. Sections of the colon are taken for either MPO analysis to determine neutrophil infiltration or for histopathology involving scoring to determine disease severity.

[4] = IL-8, read-out: IC50 Values for Inhibition of Cytokine Release, dU937 cells IL-8
[5] = TNFα (REC50 relative to BIRB796 per method), read-out: IC50 Values for Inhibition of Cytokine Release, dU937 cells TNFα
[6] = IL-8, read-out: IC50 Values for Inhibition of Cytokine Release, PBMCs IL-8
[7] = IL-2, read-out: IC50 Values for Inhibition of Cytokine Release, PBMCs IL-2
[8] = IFNγ, read-out: IC50 Values for Inhibition of Cytokine Release, PBMCs IFNγ

Chain of p38 MAPKα (Q16539 whole entry): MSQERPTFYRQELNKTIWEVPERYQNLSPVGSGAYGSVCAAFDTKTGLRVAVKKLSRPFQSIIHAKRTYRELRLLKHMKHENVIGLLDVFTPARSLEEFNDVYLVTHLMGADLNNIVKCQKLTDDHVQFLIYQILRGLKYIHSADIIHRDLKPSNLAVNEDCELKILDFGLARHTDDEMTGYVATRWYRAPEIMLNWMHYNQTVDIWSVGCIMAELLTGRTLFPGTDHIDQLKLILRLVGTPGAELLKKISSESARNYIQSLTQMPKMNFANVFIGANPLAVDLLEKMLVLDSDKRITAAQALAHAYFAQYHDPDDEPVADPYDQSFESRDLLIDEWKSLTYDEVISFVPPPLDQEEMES

Row | SMILES | IC50 (p38 MAPKα) [nM] | IC50 (c-Src) [nM] | IC50 (Syk) [nM] | IC50 (GSK3α) [nM] | IC50 (d-U937 cells; [4]) [nM] | IC50 (d-U937 cells; [5]) [nM] | IC50 (HT29 cells) [nM] | IC50 (PBMCs [1]; [6]) [nM] | IC50 (PBMCs [2]; [7]) [nM] | IC50 (PBMCs [2]; [8]) [nM] | TNBS Ulcer grade ([3]; 5 mg/kg oral, conducted over 2 days, vehicle 3.6 ± 0.3 (exp. 1), 4.4 ± 0.2 (exp. 2)) | TNBS LP inflammation ([3]; 5 mg/kg oral, conducted over 2 days, vehicle 3.9 ± 0.3 (exp. 1), 4.5 ± 0.2 (exp. 2)) | activity in in vivo model of colonic inflammation (histopathology analysis) ([3]; conducted over 2 days) | inflammatory cell infiltrate in the reticular and laminar propria zone ([3]; dosed orally at 5 mg/kg) | ulcer grade and epithelial repair compared to the vehicle control ([3]; dosed orally at 5 mg/kg) | IC50 (PBMCs [1]; TNFα, read-out: IC50 Values for Inhibition of Cytokine Release, PBMCs TNFα) [nM]
1 | CC(C)(C)c1cc(NC(=O)Nc2ccc(Oc3ccnc(Nc4ccccc4)n3)c3ccccc23)n(-c2cccc(CP(C)(C)=O)c2)n1 [Example 23, 1-(3-(tert-Butyl)-1-(3-((dimethylphosphoryl)methyl)phenyl)-1H-pyrazol-5-yl)-3-(4-((2-(phenylamino)pyrimidin-4-yl)oxy)naphthalen-1-yl)urea] | 265 | 40 | 97 | 1640 | 2.2 | 1.4 | 13.5 | 7.5 | 42.7 |  |  |  |  |  |  | 
2 | Cc1cc(Nc2nccc(Oc3ccc(NC(=O)Nc4cc(C(C)(C)C)nn4-c4cccc(CP(C)(C)=O)c4)c4ccccc34)n2)cc2cn[nH]c12 [Example 32, 1-(3-(tert-Butyl)-1-(3-((dimethylphosphoryl)methyl)phenyl)-1H-pyrazol-5-yl)-3-(4-((2-((7-methyl-1H-indazol-5-yl)amino)pyrimidin-4-yl)oxy)naphthalen-1-yl)urea] | 60 | 5 | 5 | 1320 |  |  | 1.9 | 1.3 | 4.2 | 2.3 | 3.3 ± 0.4 | 2.7 ± 0.4 | significant activity | marked reduction | marked improvements | 
3 | CN(c1ccccc1)c1nccc(Oc2ccc(NC(=O)Nc3cc(C(C)(C)C)nn3-c3ccc(P(C)(C)=O)cc3)c3ccccc23)n1 [Example 15, 1-(3-(tert-Butyl)-1-(4-(dimethylphosphoryl)phenyl)-1H-pyrazol-5-yl)-3-(4-((2-(methyl-(phenyl)amino)pyrimidin-4-yl)oxy)naphthalen-1-yl)urea] | 56 | > 1000 | > 1000 | > 10000 | 398 | 182 | 632 | 680 |  |  |  |  |  |  |  | 200

Continued, in another order:

Row | IC50 (p38 MAPKα) [nM] | IC50 (c-Src) [nM] | IC50 (Syk) [nM] | IC50 (GSK3α) [nM] | IC50 (d-U937 cells; [4]) [nM] | IC50 (d-U937 cells; [5]) [nM] | IC50 (HT29 cells) [nM] | SMILES | IC50 (PBMCs [1]; [6]) [nM] | IC50 (PBMCs [2]; [7]) [nM] | IC50 (PBMCs [2]; [8]) [nM] | TNBS Ulcer grade ([3]; 5 mg/kg oral, conducted over 2 days, vehicle 3.6 ± 0.3 (exp. 1), 4.4 ± 0.2 (exp. 2)) | TNBS LP inflammation ([3]; 5 mg/kg oral, conducted over 2 days, vehicle 3.9 ± 0.3 (exp. 1), 4.5 ± 0.2 (exp. 2)) | activity in in vivo model of colonic inflammation (histopathology analysis) ([3]; conducted over 2 days) | inflammatory cell infiltrate in the reticular and laminar propria zone ([3]; dosed orally at 5 mg/kg) | ulcer grade and epithelial repair compared to the vehicle control ([3]; dosed orally at 5 mg/kg) | IC50 (PBMCs [1]; TNFα, read-out: IC50 Values for Inhibition of Cytokine Release, PBMCs TNFα) [nM]
4 | 10 | 2 | 3 | 1250 | 2.9 | 1.6 | 27 | COc1cc(Nc2nccc(Oc3ccc(NC(=O)Nc4cc(C(C)C)nn4-c4cccc(CP(C)(C)=O)c4)c4ccccc34)n2)cc(C(=O)NCCN2CCOCC2)c1 [Example 38, 3-((4-((4-(3-(1-(3-((Dimethylphosphoryl)methyl)phenyl)-3-isopropyl-1H-pyrazol-5-yl)-ureido)naphthalen-1-yl)oxy)pyrimidin-2-yl)amino)-5-methoxy-N-(2-morpholinoethyl)-benzamide] | 3.8 | 9.2 |  |  |  |  |  |  | 
5 | 81 | 7 | 18 | 1240 | 0.9 |  | 1.9 | CC(C)(C)c1cc(NC(=O)Nc2ccc(Oc3ccnc(Nc4cc(OC(F)(F)F)cc(C(=O)NCCN5CCOCC5)c4)n3)c3ccccc23)n(-c2cccc(CP(C)(C)=O)c2)n1 [Example 59, 3-((4-((4-(3-(3-(tert-Butyl)-1-(3-((dimethylphosphoryl)methyl)phenyl)-1H-pyrazol-5-yl)-ureido)naphthalen-1-yl)oxy)pyrimidin-2-yl)amino)-N-(2-morpholinoethyl)-5-(trifluoromethoxy)benzamide] | 0.8 | 75.1 | 2.5 |  |  |  |  |  | 
6 | 21 |  |  | 1130 |  | 3.9 | 6.5 | COCCOCCOCCOc1cc(Nc2nccc(Oc3ccc(NC(=O)Nc4cc(C(C)C)nn4-c4cccc(CP(C)(C)=O)c4)c4ccccc34)n2)cc(OC)c1 [Example 45, 1-(1-(3-((Dimethylphosphoryl)methyl)phenyl)-3-isopropyl-1H-pyrazol-5-yl)-3-(4-((2-((3-methoxy-5-(2-(2-(2-methoxyethoxy)ethoxy)ethoxy)phenyl)amino)pyrimidin-4-yl)oxy)naphthalen-1-yl)urea] | 3.3 | 19.3 |  |  |  |  |  |  | 
